Results from patent US9199985B2, “Compounds and methods for treatment of hypertension” (Medivation Technologies, Inc., priority 2011, dated 2015).

Conditions: conscious rabbits, intravenous, dose regimen identical to test compound; positive control
Procedure: Four adult New Zealand White rabbits of both sexes are chosen for these studies. […] The conscious rabbits are implanted with an intravenous catheter in marginal ear vein or by centrally by intracisternal catheter interfaced to a pressure transducer connected to a suitable recorder. To unveil peripheral effects of test compound, two sets of acute studies are conducted in rabbits. In the first set of studies, test compound is dosed to rabbit intravenously for a dose-response study with cumulative doses starting 0 (Ringer's Lock solution as a vehicle), 0.1, 0.3, 1, 3.2 and 10 mg/kg where each dose is tested on a separate day. A single intravenous bolus dose at 3 mg/kg is given and a time-course study is conducted in the second set of studies. Systolic, diastolic, mean and diastolic blood pressures are recorded in both the studies. Data collections are made for 3 hours in the second set of studies. Heart rate (HR) is derived electronically using an algorithm to determine HR from pulse interval. In a separate set of studies, Clonidine (positive control) is tested where all experimental procedures including dose-regimen are identical to that of the studies with test compound.

Clc1cccc(Cl)c1N=C1NCCN1 [Clonidine]
maximum drop of arterial blood pressure: −6 mmHg
